For 15 compounds, IC50 results are on record in US20220073536A1 (Rigel Pharmaceuticals, Inc., priority 2003, published 2022).

The assay has as its system cultured human mast cells (CHMC). As to the kind of experiment: CHMC low cell density IgE activation: tryptase assay. The note with it: IgE activation. The class given is cell-based. An outline of the steps: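 Anti-IgE-driven degranulation of cultured human mast cells at low density, 1000–1500 cells/well, was induced over 30 min at 37 °C. It was scored by supernatant tryptase activity on a fluorogenic substrate.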

Where [1] appears, read: low cell density CHMC, tryptase, 3 pt, read-out: LD Tryptase, CHMC, IgE, 3 pt.
[2] abbreviates: Homo sapiens, Mast cell, low cell density CHMC, tryptase, 3 pt, read-out: LD Tryptase, CHMC, IgE, 3 pt.
Where [3] appears, read: Homo sapiens, Mast cell, low cell density CHMC, tryptase, 8 pt, read-out: LD Tryptase, CHMC, IgE, 8 pt.
Where [4] appears, read: low cell density, 3 pt, read-out: LD Tryptase, CHMC, IgE, 3 pt.
Where [5] appears, read: low cell density, 8 pt, read-out: LD Tryptase, CHMC, IgE, 8 pt.

Structures can show the parent of a compound that is named as a salt. Where two headings read alike, the source gives them in different places. Bounds are passed on as bounds.

Regarding `Cc1cc(Nc2ncc(F)c(Nc3ccc4c(c3)OC(F)(F)C(F)(F)O4)n2)cc(C)c1Cl` [Compound 358], the IC50 under setting [1] was more than 10 µM.
Take `NC(=O)c1ccc(Nc2nc(Nc3cc(Cl)c(O)c(Cl)c3)ncc2F)cc1` [Compound 1335]: the IC50 by setting is: under setting [2], less than 10 µM; under setting [3], less than 10 µM.
Regarding `Cc1nc2cc(Nc3ncc(F)c(Nc4ccc5c(n4)NC(=O)C(C)(C)O5)n3)ccc2n1CCCNS(C)(=O)=O` [Compound 964, N4-(2,2-Dimethyl-3-oxo-4H-5-pyrido[1,4]oxazin-6-yl)-5-fluoro-N2-[2-methyl-1-[3-(N-methylsulfonylamino)propyl]benzimidazol-5-yl]-2,4-pyrimidinediamine], the IC50 was less than 10 µM under setting [4] and less than 10 µM under setting [5].
As to `COc1cc(Nc2nc(Nc3ccc4cnn(C5CCCCC5)c4c3)ncc2F)ccc1F` [Compound 749, N2-(1-Cyclohexylindazol-6-yl)-5-fluoro-N4-(4-fluoro-3-methoxyphenyl)-2,4-pyrimidinediamine], the IC50 under setting [2] was less than 10 µM.
Regarding `NC(=O)c1ccc(Nc2ncc(F)c(Nc3ccccc3)n2)cc1` [Compound 1357, N2-(4-Aminocarbonylphenyl)-5-fluoro-N4-phenyl-2,4-pyrimidinediamine], the IC50 runs as follows: under setting [2], less than 10 µM; under setting [3], less than 10 µM.
For the compound `CC1(C)Oc2ccc(Nc3nc(Nc4cc(Cl)c(O)c(Cl)c4)ncc3F)nc2NC1=O` [Compound 686, N4-(2,2-Dimethyl-3-oxo-4H-5-pyrid[1,4]oxazin-6-yl)-N2-(3,5-dichloro-4-hydroxyphenyl)-5-fluoro-2,4-pyrimidinediamine], the IC50 was less than 10 µM under setting [1] and less than 10 µM (low cell density CHMC, tryptase, 8 pt, read-out: LD Tryptase, CHMC, IgE, 8 pt).
As to `CC1(C)Oc2ccc(Nc3nc(Nc4cccc(N5CCOCC5)c4)ncc3F)nc2NC1=O` [Compound 1078, N4-(2,2-Dimethyl-3-oxo-4H-5-pyrid[1,4]oxazin-6-yl)-5-fluoro-N2-(3-morpholinophenyl)-2,4-pyrimidinediamine], for the setting “low cell density CHMC, tryptase readout, 8 pt, read-out: LD Tryptase, CHMC, IgE, 8 pt”, the IC50 is less than 10 µM.
Consider “N4- (2,2-Dimethyl-3-oxo-4H-benz[1,4]oxazin-6-yl)-5-fluoro-[1-(2-hydroxymethyl)-2-trifluoromethylbenzimidazol-5-yl]-2,4-pyrimidinediamine [Compound 922]”, for which the IC50 under setting [5] is less than 10 µM.
Consider `Fc1cnc(Nc2ccc3c(cnn3C3CCCCC3)c2)nc1Nc1ccc(Cl)c(Cl)c1` [Compound 743, N2-(1-Cyclohexylindazol-5-yl)-N4-(3,4-dichlorophenyl)-5-fluoro-2,4-pyrimidinediamine], for which, under setting [2], the IC50 is less than 10 µM.
Turning to `CNC(=O)COc1c(C)cc(Nc2ncc(F)c(Nc3ccc4c(c3)OCO4)n2)cc1C` [Compound 575, N2-[3,5-dimethyl-4-(N-methylamino)carbonylmethyleneoxyphenyl]-5-fluoro-N4-(3,4-methylenedioxyphenyl)-2,4-pyrimidinediamine], the IC50 (low cell density CHMC, tryptase release, 3 point, read-out: LD Tryptase, CHMC, IgE, 3 pt) was less than 10 µM and the IC50 (low cell density CHMC, tryptase release, 8 point, read-out: LD Tryptase, CHMC, IgE, 8 pt) was less than 10 µM.
As for `CNC(=O)COc1cccc(Nc2ncc(F)c(Nc3ccc4c(n3)NC(=O)C(C)(C)O4)n2)c1` [Compound 986, N4-(2,2-Dimethyl-3-oxo-4H-5-pyrid[1,4]oxazin-6-yl)-5-fluoro-N2-[3-(N-methylamino)carbonylmethyleneoxyphenyl]-2,4-pyrimidinediamine Hydrogen Chloride Salt], the IC50 is less than 10 µM under setting [4] and less than 10 µM under setting [5].
With `CCN1CCN(c2ccc(Nc3ncc(F)c(NC4CC(C)(C)N(C)C(C)(C)C4)n3)cn2)CC1` [Compound 1237], the IC50 under setting [2] is more than 10 µM.
Turning to `COc1ccc(Nc2nc(Nc3cc(OC)c(OC)c(OC)c3)ncc2F)nc1Cl` [Compound 876, N4-(2-Chloro-3-methoxypyrid-6-yl)-5-fluoro-N2-(3,4,5-trimethoxyphenyl)-2,4-pyrimidinediamine], the IC50 is, setting by setting: (Homo sapiens, Mast cell, low cell density, 3 pt, read-out: LD Tryptase, CHMC, IgE, 3 pt) less than 10 µM; (Homo sapiens, Mast cell, low cell density, 8 pt, read-out: LD Tryptase, CHMC, IgE, 8 pt) less than 10 µM.
For the compound `CCOC(=O)N1CCC(Nc2nc(Nc3ccc(N4CCN(C)CC4)c(Cl)c3)ncc2F)CC1` [Compound 1227], the IC50 under setting [2] is less than 10 µM.
The same measure, in the same setting: the result for `CN1CCN(c2ccc(Nc3ncc(F)c(NC(C)(C)C)n3)cc2)CC1` [Compound 1215] reads more than 10 µM.
